What was measured:
Russian thistle = assay: Test C pre-/postemergence herbicide test; type: in vivo, Salsola kali; conditions: Preemergence
Description: Seeds of plant species selected from blackgrass (Alopecurus myosuroides), ryegrass, Italian (Italian ryegrass, Lolium multiflorum), wheat (winter wheat, Triticum aestivum), galium (catchweed bedstraw, Galium aparine), corn (Zea mays), crabgrass, large (large crabgrass, Digitaria sanguinalis), foxtail, giant (giant foxtail, Setaria faberii), johnsongrass (Sorghum halepense), lambsquarters (Chenopodium album), morningglory (Ipomoea coccinea), nutsedge, yellow (yellow nutsedge, Cyperus esculentus), pigweed (Amaranthus retroflexus), ragweed (common ragweed, Ambrosia elatior), soybean (Glycine max), barnyardgrass (Echinochloa crus-galli), oilseed rape (Brassica napus), waterhemp (common waterhemp, Amaranthus rudis), kochia (Kochia scoparia), oat, wild (wild oat, Avena fatua), surinam grass (Brachiaria decumbens), foxtail, green (green foxtail, Setaria viridis), goosegrass (Eleusine indica), bromegrass, downy (downy bromegrass, Bromus tectorum), nightshade (eastern black nightshade, Solanum ptycanthum), cocklebur (common cocklebur, Xanthium strumarium), cupgrass, woolly (woolly cupgrass, Eriochloa villosa), bermudagrass (Cynodon dactylon), sunflower, (common oilseed sunflower, Helianthus annuus), Russian thistle (Salsola kali) and velvetleaf (Abutilon theophrasti) were planted into a blend of loam soil and sand and treated preemergence with test chemicals formulated in a non-phytotoxic solvent mixture which included a surfactant. At the same time, plants selected from these crop and weed species and also barley (winter barley, Hordeum vulgare), […]), chickweed (common chickweed, Stellaria media), deadnettle (henbit deadnettle, Lamium amplexicaule), and canarygrass (littleseed canarygrass, Phalaris minor) were planted in pots containing Redi-Earth® planting medium (Scotts Company, 14111 Scottslawn Road, Marysville, Ohio 43041) comprising spaghnum peat moss, vermiculite, wetting agent and starter nutrients and treated with postemergence applications of test chemicals formulated in the same manner. Plants ranged in height from 2 to 18 cm (1- to 4-leaf stage) for postemergence treatments. Treated plants and controls were maintained in a greenhouse for 13 to 15 days, after which time all species were compared to controls and visually evaluated. Plant response ratings, summarized in Table C, are based on a scale of 0 to 100 where 0 is no effect and 100 is complete control. A dash (-) response means no test result.

Rice, W.S. Ind = assay: Test F flood (paddy) test; type: in vivo, Oryza sativa Indica; conditions: 21 d, scale 0-100
Outline: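 Pots of sterilized Tama silt loam (35:50:15 sand:silt:clay, 2.6% organic matter) were sown so crop and weeds reached the 2.0–2.5-leaf stage; greenhouse 30/27 °C, 16-h photoperiod. Pots flooded to 3 cm, compound applied into paddy water, depth maintained. Visual rating vs untreated controls after 21 d, 0–100 scale.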

sedge, umbrella = assay: Test F flood (paddy) test; type: in vivo, Cyperus difformis; conditions: 21 d, scale 0-100
Description: (§1) Three plastic pots (ca. 16-cm diameter) per rate were partially filled with sterilized Tama silt loam soil comprising a 35:50:15 ratio of sand, silt and clay and 2.6% organic matter. Separate plantings for each of the three pots were as follows. Seeds from the U.S. of monochoria (Monochoria vaginalis), sedge, umbrella (small-flower umbrella sedge, Cyperus difformis), bulrush, […] bulrush, Scirpus juncoides), and […] (purple […] coccinea), were planted into one 16-cm pot for each rate. Seeds from the U.S. of flatsedge, rice (rice flatsedge, Cyperus iria), sprangletop, Brdd. (bearded sprangletop, Leptochloa fascicularis), one stand of 9 or 10 water seeded rice seedlings (Rice, W.S. Jap, Oryza sativa cv. 'Japonica-[…]' or Rice, W.S. Ind, 'Indica'), and two stands of 3 or 4 seedlings of rice, transplanted (transplanted rice, Oryza sativa cv. 'Japonica-[…]') were planted into one 16-cm pot for each rate. Seeds from the U.S. of barnyardgrass (Echinochloa crus-galli), […] (common […], Alisma plantago-aquatica), and watergrass, late (late watergrass, Echinochloa oryzicola) were planted into one 16-cm pot for each rate. Plantings were sequential so that crop and weed species were at the 2.0 to 2.5-leaf stage at time of treatment. Potted plants were grown in a greenhouse with day/night temperature settings of 30/27° C., and supplemental balanced lighting was provided to maintain a 16-h photoperiod. Test pots were maintained in the greenhouse until test completion. At time of treatment, test pots were flooded to 3 cm above the soil surface, treated by application of test compounds directly to the paddy water, and then maintained at that water depth for the duration of the test. Effects of treatments on rice and weeds were visually evaluated by comparison to untreated controls after 21 d. Plant response ratings, summarized in Table F, are based on a scale of 0 to 100 where 0 is no effect and 100 is complete control. A dash (-) response means no test result.

barley (winter barley) = assay: Test C postemergence herbicide test; type: in vivo, Hordeum vulgare
Description: At the same time, plants selected from these crop and weed species and also barley (winter barley, Hordeum vulgare), […]), chickweed (common chickweed, Stellaria media), deadnettle (henbit deadnettle, Lamium amplexicaule), and canarygrass (littleseed canarygrass, Phalaris minor) were planted in pots containing Redi-Earth® planting medium (Scotts Company, 14111 Scottslawn Road, Marysville, Ohio 43041) comprising spaghnum peat moss, vermiculite, wetting agent and starter nutrients and treated with postemergence applications of test chemicals formulated in the same manner. Plants ranged in height from 2 to 18 cm (1- to 4-leaf stage) for postemergence treatments. Treated plants and controls were maintained in a greenhouse for 13 to 15 days, after which time all species were compared to controls and visually evaluated. Plant response ratings, summarized in Table C, are based on a scale of 0 to 100 where 0 is no effect and 100 is complete control. A dash (-) response means no test result.

bulrush, hardstem = assay: Test F flood (paddy) test; type: in vivo, Scirpus juncoides; conditions: 21 d, scale 0-100
Description: as §1

[1] = 125 g ai/ha, scale 0 to 100 (0 no effect, 100 complete control)
[2] = 31 g ai/ha, scale 0 (no effect) to 100 (complete control)
[3] = 62 g ai/ha, scale 0 to 100 (0 no effect, 100 complete control)
[4] = 250 g ai/ha, scale 0 to 100 (0 no effect, 100 complete control)

O=C1NCC(c2ccc(Cl)c(Cl)c2)C1C(=O)Nc1ccccc1F (racemic) [Compound 14]
Plant response rating, Russian Thistle (Russian thistle; 62 g ai/ha, scale 0 to 100): 0 | Plant response rating, Russian Thistle (Russian thistle; [1]): 0

O=C1NCC(c2ccc(F)c(F)c2)C1C(=O)Nc1cccc(F)c1F (racemic) [Compound 101]
Plant response rating, Rice, W.S. Ind (Rice, W.S. Ind; 64 g ai/ha): 0 | Plant response rating, Rice, W.S. Ind (Rice, W.S. Ind; 125 g ai/ha): 20 | Plant response rating, Rice, W.S. Ind (Rice, W.S. Ind; 250 g ai/ha): 35 | Plant response rating, Rice, W.S. Ind (Rice, W.S. Ind; 500 g ai/ha): 60

O=C1NCC(c2cccc(C(F)F)c2)C1C(=O)Nc1ccccc1F (racemic) [Compound 210]
Plant response rating, Rice, W.S. Ind (Rice, W.S. Ind; 125 g ai/ha): 0 | Plant response rating, Rice, W.S. Ind (Rice, W.S. Ind; 250 g ai/ha): 0 | Plant response rating, Rice, W.S. Ind (Rice, W.S. Ind; 500 g ai/ha): 0

O=C1NCCC1C(=O)N(c1ccc(F)c(F)c1)c1ccccc1F (stereo not shown) [Compound 5, N-(3,4-difluorophenyl)-N-(2-fluorophenyl)-2-oxo-3-pyrrolidinecarboxamide]
Plant response rating, Russian Thistle (Russian thistle; 62 g ai/ha, scale 0 to 100): 0 | Plant response rating, Sedge, Umbrella (sedge, umbrella; 125 g ai/ha): 0 | Plant response rating, Sedge, Umbrella (sedge, umbrella; 250 g ai/ha): 0 | Plant response rating, Sedge, Umbrella (sedge, umbrella; 500 g ai/ha): 0 | Plant response rating, Sedge, Umbrella (sedge, umbrella; 1000 g ai/ha): 0 | Plant response rating, Sedge, Umbrella (sedge, umbrella; 2000 g ai/ha): 0

O=C1NCC(c2ccc(F)c(F)c2)C1C(=O)Nc1cccc(F)c1F (stereo not shown) [Compound 17, N-(2,3-difluorophenyl)-4-(3,4-difluorophenyl)-2-oxo-3-pyrrolidinecarboxamide]
Plant response rating, Barley (barley (winter barley); [2]): 0 | Plant response rating, Barley (barley (winter barley); [3]): 0 | Plant response rating, Barley (barley (winter barley); [1]): 0 | Plant response rating, Barley (barley (winter barley); [4]): 0 | Plant response rating, Sedge, Umbrella (sedge, umbrella; 125 g ai/ha): 0 | Plant response rating, Sedge, Umbrella (sedge, umbrella; 250 g ai/ha): 0 | Plant response rating, Sedge, Umbrella (sedge, umbrella; 500 g ai/ha): 0 | Plant response rating, Sedge, Umbrella (sedge, umbrella; 1000 g ai/ha): 0 | Plant response rating, Sedge, Umbrella (sedge, umbrella; 2000 g ai/ha): 20 | Plant response rating, Bulrush, Hardstem (bulrush, hardstem; 125 g ai/ha): 0 | Plant response rating, Bulrush, Hardstem (bulrush, hardstem; 250 g ai/ha): 0 | Plant response rating, Bulrush, Hardstem (bulrush, hardstem; 500 g ai/ha): 0 | Plant response rating, Bulrush, Hardstem (bulrush, hardstem; 1000 g ai/ha): 0 | Plant response rating, Bulrush, Hardstem (bulrush, hardstem; 2000 g ai/ha): 40

O=C1NCC(c2cc(F)c(F)c(F)c2)C1C(=O)Nc1cccc(F)c1F (stereo not shown) [Compound 48]
Plant response rating, Barley (barley (winter barley); 16 g ai/ha, scale 0 to 100 (0 no effect, 100 complete control)): 0 | Plant response rating, Barley (barley (winter barley); [2]): 0 | Plant response rating, Barley (barley (winter barley); [3]): 0 | Plant response rating, Barley (barley (winter barley); [1]): 0

O=C1NCC(c2cc(F)c(F)cc2F)C1C(=O)Nc1cccc(F)c1F (stereo not shown) [Compound 50]
Plant response rating, Barley (barley (winter barley); [2]): 0 | Plant response rating, Barley (barley (winter barley); [3]): 0 | Plant response rating, Barley (barley (winter barley); [1]): 0 | Plant response rating, Barley (barley (winter barley); [4]): 0

O=C1NCC(c2ccc(Cl)c(F)c2)C1C(=O)Nc1cccc(F)c1F (stereo not shown) [Compound 52]
Plant response rating, Barley (barley (winter barley); [2]): 0 | Plant response rating, Barley (barley (winter barley); [3]): 0 | Plant response rating, Barley (barley (winter barley); [1]): 0 | Plant response rating, Barley (barley (winter barley); [4]): 15

O=C1NCC(c2ccc(F)c(Cl)c2)C1C(=O)Nc1ccccc1F (stereo not shown) [Compound 60]
Plant response rating, Russian Thistle (Russian thistle; 62 g ai/ha, scale 0 to 100): 50 | Plant response rating, Russian Thistle (Russian thistle; [1]): 60 | Plant response rating, Barley (barley (winter barley); [2]): 0 | Plant response rating, Barley (barley (winter barley); [3]): 0 | Plant response rating, Barley (barley (winter barley); [1]): 20

O=C1NC[C@H](c2cccc(C(F)(F)F)c2)[C@H]1C(=O)Nc1ccccc1F [Compound 204, (3R,4S)—N-(2-fluorophenyl)-2-oxo-4-[3-(trifluoromethyl)phenyl]-3-pyrrolidinecarboxamide]
Plant response rating, Rice, W.S. Ind (Rice, W.S. Ind; 125 g ai/ha): 0 | Plant response rating, Rice, W.S. Ind (Rice, W.S. Ind; 250 g ai/ha): 10 | Plant response rating, Rice, W.S. Ind (Rice, W.S. Ind; 500 g ai/ha): 20

O=C1NC[C@H](c2cccc(C(F)(F)F)c2)[C@H]1C(=O)Nc1cccc(F)c1F [Compound 206]
Plant response rating, Rice, W.S. Ind (Rice, W.S. Ind; 64 g ai/ha): 15 | Plant response rating, Rice, W.S. Ind (Rice, W.S. Ind; 125 g ai/ha): 25 | Plant response rating, Rice, W.S. Ind (Rice, W.S. Ind; 250 g ai/ha): 45 | Plant response rating, Rice, W.S. Ind (Rice, W.S. Ind; 500 g ai/ha): 65

CN1CC(c2ccc(F)c(F)c2)C(C(=O)Nc2cccc(F)c2F)C1=O (stereo not shown) [Compound 303]
Plant response rating, Sedge, Umbrella (sedge, umbrella; 62 g ai/ha): 0 | Plant response rating, Sedge, Umbrella (sedge, umbrella; 125 g ai/ha): 0 | Plant response rating, Sedge, Umbrella (sedge, umbrella; 250 g ai/ha): 0 | Plant response rating, Sedge, Umbrella (sedge, umbrella; 500 g ai/ha): 0 | Plant response rating, Bulrush, Hardstem (bulrush, hardstem; 62 g ai/ha): 0 | Plant response rating, Bulrush, Hardstem (bulrush, hardstem; 125 g ai/ha): 0 | Plant response rating, Bulrush, Hardstem (bulrush, hardstem; 250 g ai/ha): 70 | Plant response rating, Bulrush, Hardstem (bulrush, hardstem; 500 g ai/ha): 80 | Plant response rating, Rice, W.S. Ind (Rice, W.S. Ind; 125 g ai/ha): 25 | Plant response rating, Rice, W.S. Ind (Rice, W.S. Ind; 250 g ai/ha): 40 | Plant response rating, Rice, W.S. Ind (Rice, W.S. Ind; 500 g ai/ha): 70
